Results taken from patent US20060270643A1, “Hyfroxyflutamide induced pathways related to androgen receptor negative prostate cancer cells” (priority 2002, published 2006).
“Also recorded” adds a separate entry of the source.

Tests used:
Format in all cases: cell-based, human
DU145 cells = test: Cell proliferation assay (hemacytometer counting)
Method: 10. […] (A) DU145 cells were seeded in 10% FBS DMEM medium and 24 hours later cells were changed to serum free medium. 48 hours later changed the medium to 0.5% FBS medium and treated with ethanol, HF, or EGF. Every 24 hours, the cells were counted by hemacytometer. […]. […] (B) DU145 cells were seeded and transfected with anti-sense oligonucleotide of Ras (IRIS 2503: 5′-[…]-3′), Raf (IIUS: 5132:5′-[…]-3′) and HIV (5′-[…]-3′) (Chen, G., Oh, S., Monia B. P., and Stacey, D. W., J. Biol. Chem., 271: 28259-28265, 1996, Monia, B. P., et al., Proc. Natl. Acad. Sci. USA, 93: 15481-15484, 1996.) by SuperFect (Qiagen). 24 hour after serum starvation, we changed the cells to medium containing 0.5% FBS, and treated the cells as described in A. Cells were counted by hemacytometer every 24 hours. The cell lysate were blotted with anti-H-Ras and Raf antibodies and β-actin was blotted for loading control.
199. DU145 cells were seeded at 2×10^4/ml on 35 mm plates and allowed to attach overnight. Cells were kept in serum-free DMEM medium for 24 hours, and then media were replaced with DMEM-0.5% FBS and treated as indicated. Cells were trypsinized and counted with a hemacytometer at different times after treatments. For the antisense oligonuleotide experiments, cells were incubated with a fixed ratio of oligonucleotide versus SuperFect (2.5 μl of SuperFect per 100 nM oligo) for 4 hours and then the oligo-containing medium was replaced with DMEM-0.5% FBS. Cells were trypsinized and counted by hemacytometer at indicated times.

[1] = test system: p44/42 MAP kinase (ERK1 and 2); test: Immunoblot of phosphorylated p44/42 MAP kinase in DU145 cells
Method: 7. […] (A) DU145 cells were grown in 100 mm dishes and serum-starved for 24 hours. The cells were lysed on ice. Equal amounts of cell lysate were analyzed by 12% SDS-PAGE and subsequent immunoblotted with anti-phospho ERK1/2 and anti-ERK1/2 antibodies. (B) Different cell lines, at 70 to 80% confluence, were lysed and immunoblotted with anti-AR polyclonal antibody, NH27. (C) DU145 cells were pre-incubated with MEK1/2 inhibitor U0126, or U0124 before HF, EGF, and ethanol treatment. Cells were lysed and immunoblotted with anti-phospho ERK1/2 and anti-ERK1/2 antibodies. (D) CWR2 and (E) PC3-AR cells were grown in 100 mm dishes and serum-starved for 24 hours. The cells were treated with HF, EGF or ethanol vehicle for 15 mins and immunoblotted with anti-phospho-ERK1/2 and anti-ERK1/2 antibodies. […] MMTV-ARE-Luc reporter plasmid was cotransfected with or without pSG5AR into DU145 cells. After 18 hours, cells were treated with 1 nM DHT, 1 μM HF or both for another 18 hours, and then harvested. Cell lysates were collected and assayed for the luciferase activity.
9. […] After 15 min treatment, cells were lysed and immunoblotted with anti-phospho ERK1/2 and antiERK1/2 antibodies. […] EGFR was immunoprecipitated from the cell lysates, and their phosphotyrosine level was determined by anti-phosphotyrosine antibody. All the results were visualized using enhanced chemiluminescence.
198. This assay uses a polyclonal antibody specific against the activated p44/42 MAP kinases (Cell Signaling Technology, Beverly, Mass.), which detects p44 and p42 MAP kinase (ERK1 and 2) only when catalytically activated by dual phosphorylation at Thr202 and Tyr204. DU145 cells were seeded at 1×10^5 cells per 100 mm plate and allowed to attach overnight and then the media were replaced with serum-free DMEM media for 24 hours. The cells were pre-treated with MAP kinase inhibitors, EGFR antibodies, or cycloheximide for 1 hour and followed by HF, EGF, or vehicle treatment. Cells were washed twice with PBS, harvested at indicated times, and lyzed with RIPA buffer for 30 min on ice. The protein concentrations were determined by Bradford assay, and equal amount of protein was resolved by SDS-PAGE. Gels were transferred, immunoblotted with p44/42 MAP kinase antibody (1/1000), and then incubated with secondary antibody. Proteins were visualized by the enhanced chemiluminescence system (NEN™ Life Science Products, Boston, Mass.). P44/42 MAP kinase (total ERK1/2) was blotted as a control.

[2] = test system: MAP kinase in LNCaP cells; test: Immunoblot of phospho-ERK1/2 in LNCaP cells; settings: LNCaP cells (data not shown)
[3] = test system: MAP kinase in PC-3 stably transfected with AR (PC3-AR2); test: Immunoblot of phospho-ERK1/2 in PC3-AR2 cells; settings: 15 mins
[4] = HF at 1 μM, serum-starved DU145 cells

## CC(C)(O)C(=O)Nc1ccc([N+](=O)[O-])c(C(F)(F)F)c1 [HF, hydroxyflutamide]
DU145 cells; cells maintained in 10% FBS medium (data not shown)
  cell proliferation: no significant stimulation of cell proliferation
DU145 cells; low serum (0.5% FBS) after serum starvation
  cell proliferation: stimulate the DU 145 cell growth significant; also recorded: can promote cell proliferation
[1]
  activation of MAP kinase as compared to EGF activation: relatively weak
[1]; DU145 cells
  total MAP kinase (ERK1/2) protein expression: no influence
[1]; [4]
  time to activate MAP kinase: ≤ 15 min
  time to reach maximum MAP kinase activation: 30 min
[2]
  MAP kinase activation: not
[3]
  MAP kinase activation: activates MAP kinase
